The series can be described thus: Measurement of log P values by HPLC on reversed phase columns (methods [a] pH 2.3, [b] pH 2.7, [c] pH 7.8). The format is physicochemical. Particulars: for logP: HPLC reversed phase; for chromatographic logP: reversed phase HPLC columns, pH 2.7, HPLC reversed phase, read-out: logP. In a few lines: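 Retention times were converted to log P by linear interpolation between linear alkan-2-one standards (3 to 16 carbons) of known log P. Eluents, each with 10% to 95% acetonitrile gradient: phosphoric acid 0.1% at pH 2.3 [a]; formic acid 0.1% at pH 2.7, LC-MS [b]; ammonium hydrogen carbonate 0.001 molar at pH 7.8, LC-MS [c].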

For `O=C(NC1CC1c1ccc(Cl)cc1)c1ccccc1C(F)(F)F` (stereo not shown) [Example 201], the logP runs as follows: (method [b], pH 2.7) 3.27^[b]; (method [c], pH 7.8) 3.21^[c];.
On to `O=C(NC1CC1c1ccc(Cl)cc1)c1sccc1I` (stereo not shown) [Example 202], for which the logP by setting is: (method [b], pH 2.7) 3.56^[b]; (method [c], pH 7.8) 3.50^[c];.
Regarding `O=C(NC1CC1c1ccc(Cl)cc1)c1occc1Br` (stereo not shown) [Example 204], the logP reads like this: (method [b], pH 2.7) 3.04^[b]; (method [c], pH 7.8) 2.98^[c];.
The like results for `O=C(NC1CC1c1ccc(Cl)cc1Cl)c1ccccc1F` (stereo not shown) [Example 205] were, in that order, 3.66^[b] and 3.55^[c];.
Take `O=C(NC1CC1c1ccc(Cl)cc1Cl)c1ccccc1Cl` (stereo not shown) [Example 206]: the logP is, setting by setting: (method [b], pH 2.7) 3.57^[b]; (method [c], pH 7.8) 3.47^[c];.
As to `O=C(NC1CC1c1ccc(Cl)cc1Cl)c1ccccc1Br` (stereo not shown) [Example 207], the logP by setting is: (method [b], pH 2.7) 3.58^[b]; (method [c], pH 7.8) 3.52^[c];.
As to `O=C(NC1CC1c1ccc(Cl)cc1Cl)c1ccccc1I` (stereo not shown) [Example 208], the logP (method [b], pH 2.7) is 3.74^[b] and the logP (method [c], pH 7.8) is 3.64^[c];.
With `O=C(NC1CC1c1ccc(Cl)cc1Cl)c1c(F)cccc1F` (stereo not shown) [Example 209], the logP (method [b], pH 2.7) was 3.36^[b] and the logP (method [c], pH 7.8) was 3.29^[c];.
Take `O=C(NC1CC1c1ccc(Cl)cc1Cl)c1ccccc1C(F)(F)F` (stereo not shown) [Example 210]: the logP by setting is: (method [b], pH 2.7) 3.73^[b]; (method [c], pH 7.8) 3.62^[c];.
For the compound `O=C(NC1CC1c1ccc(Cl)cc1Cl)c1cccnc1Cl` (stereo not shown) [Example 211], the logP (method [b], pH 2.7) is 2.82^[b] and the logP (method [c], pH 7.8) is 2.77^[c];.
As for `O=C(NC1CCC1c1c(F)cccc1F)c1ncc(C(F)(F)F)cc1Cl` (stereo not shown) [Example 228], the logP (method [b], pH 2.7) is 3.61^[b].
`O=C(NC1CC1c1ccccc1Cl)c1ccccc1I` (stereo not shown) [Example 229]: the logP (method [b], pH 2.7) was 3.14^[b].
On to `O=C(NC1CC1c1ccccc1Cl)c1ccccc1C(F)(F)F` (stereo not shown) [Example 230], for which the logP (method [b], pH 2.7) is 3.13^[b].
As to `Cn1cc(C(=O)NC2CC2c2ccccc2Cl)c(C(F)F)n1` (stereo not shown) [Example 231], for the setting “method [b], pH 2.7”, the logP was 2.45^[b].
Regarding `O=C(NC1CC1c1ccccc1C(F)(F)F)c1ccccc1I` (stereo not shown) [Example 232], the logP (method [b], pH 2.7) is 3.31^[b].
Regarding `O=C(NC1CC1c1ccccc1C(F)(F)F)c1ccccc1C(F)(F)F` (stereo not shown) [Example 233], where the note is “method [b], pH 2.7”, the logP is 3.29^[b].
For the compound `Cn1cc(C(=O)NC2CC2c2ccccc2C(F)(F)F)c(C(F)F)n1` (stereo not shown) [Example 234], the logP (method [b], pH 2.7) was 2.64^[b].
The same measure, in the same setting: in the case of `O=C(NC1CCC1c1ccccc1Cl)c1ncc(C(F)(F)F)cc1Cl` (stereo not shown) [Example 237] it was 3.96^[b]; in that of `O=C(NC1CCC1c1ccccc1Cl)c1ccccc1Cl` (stereo not shown) [Example 239], 3.30^[b].
For the compound `O=C(NC1CC1c1ccc(Cl)cc1)c1c(F)cccc1C(F)(F)F` (stereo not shown) [Example 270], the logP was 3.08^[b] (method [b] (pH 2.7)) and 3.03^[c]; (method [c] pH 7.8).
On to `O=C(NC1CC1c1ccc(Cl)cc1)c1ccccc1Br` (stereo not shown) [Example 272], for which the logP was 2.82^[b] (method [b] (pH 2.7)) and 2.76^[c]; (method [c] pH 7.8).
As for `O=C(NC1CC1c1ccc(Cl)cc1)c1ccccc1Cl` (stereo not shown) [Example 275], the logP is 2.77^[b] (method [b] (pH 2.7)) and 2.71^[c]; (method [c] pH 7.8).
Turning to `Cc1nn(C)cc1C(=O)NC1CCCC1c1ccc(Cl)cc1` (stereo not shown) [Example 277], the logP (method [b] (pH 2.7)) is 2.31^[b].
`O=C(NC1CCCC1c1ccc(Cl)cc1)c1ccccc1Cl` (stereo not shown) [Example 278]: the logP (method [b] (pH 2.7)) is 3.45^[b].
Consider `O=C(NC1CCCC1c1ccc(Cl)cc1)c1ccccc1C(F)(F)F` (stereo not shown) [Example 279], for which the logP (method [b] (pH 2.7)) is 3.64^[b].
In the case of `O=C(NC1CCCC1c1ccc(Cl)cc1)c1ccccc1I` (stereo not shown) [Example 280], the logP (method [b] (pH 2.7)) is 3.64^[b].
On the same count and under the same terms, the same measure for `O=C(NC1CCCC1c1ccc(Cl)cc1)c1cccnc1Cl` (stereo not shown) [Example 281]: 2.81^[b]; for `O=C(NC1CCCC1c1ccc(Cl)cc1)c1c(F)cccc1F` (stereo not shown) [Example 282]: 3.28^[b].
For `O=C(NC1CCCC1c1ccc(Cl)cc1)c1cccnc1C(F)(F)F` (stereo not shown) [Example 283], the chromatographic logP (method [b] (pH 2.7)) was 2.83.
For the compound `Cc1nc(C)c(C(=O)NC2CCCC2c2ccc(Cl)cc2)s1` (stereo not shown) [Example 284], for the setting “method [b] (pH 2.7)”, the logP is 3.11^[b].
As to `O=C(NC1CCCC1c1ccccc1C(F)(F)F)c1ccccc1I` (stereo not shown) [Example 285], the logP (method [b] (pH 2.7)) was 3.81^[b].
In the case of `O=C(NC1CCCC1c1ccccc1C(F)(F)F)c1ccccc1C(F)(F)F` (stereo not shown) [Example 286], the logP (method [b] (pH 2.7)) was 3.79^[b].
Regarding `Cn1cc(C(=O)NC2CCCC2c2ccccc2C(F)(F)F)c(C(F)F)n1` (stereo not shown) [Example 287], where the note is “method [b] (pH 2.7)”, the logP is 3.06^[b].
Regarding `O=C(N[C@@H]1CCC[C@@H]1c1ccccc1C(F)(F)F)c1cccnc1C(F)(F)F` [Example 290], the chromatographic logP (method [b] (pH 2.7)) was 3.29.
Consider `Cc1nc(C)c(C(=O)NC2CCCC2c2ccccc2Cl)s1` (stereo not shown) [Example 291], for which the logP (method [b] (pH 2.7)) was 2.73^[b].
As to `Cc1nn(C)cc1C(=O)NC1CCCC1c1ccccc1Cl` (stereo not shown) [Example 292], the logP (method [b] (pH 2.7)) is 2.24^[b].
Consider `O=C(NC1CCCC1c1ccccc1Cl)c1cccnc1Cl` (stereo not shown) [Example 293], for which the logP (method [b] (pH 2.7)) was 2.64^[b].
On the same count and under the same terms, the same measure for `O=C(NC1CCCC1c1ccccc1Cl)c1ccccc1Cl` (stereo not shown) [Example 294]: 3.42^[b].
Still for that read-out and setting: in the case of `O=C(NC1CCCC1c1ccccc1Cl)c1ccccc1I` (stereo not shown) [Example 295] it was 3.51^[b].
In the case of `O=C(NC1CCCC1c1ccccc1C(F)(F)F)c1ccccc1Cl` (stereo not shown) [Example 300], the logP (method [b] (pH 2.7)) is 3.56^[b].
Consider `O=C(NC1CCCC1c1ccccc1C(F)(F)F)c1cccnc1Cl` (stereo not shown) [Example 301], for which the logP (method [b] (pH 2.7)) was 2.90^[b].
In the case of `O=C(NC1CCCC1c1ccc(C(F)(F)F)cc1)c1ccccc1Cl` (stereo not shown) [Example 305], the logP is 3.68^[b] (method [b] (pH 2.7)) and 3.63^[c]; (method [c] pH 7.8).
For the compound `CN(C(=O)c1ccccc1C(F)(F)F)C1CCCC1c1ccc(C(F)(F)F)cc1` (stereo not shown) [Example 307], the logP runs as follows: (method [b] (pH 2.7)) 4.46^[b]; (method [c] pH 7.8) 4.40^[c];.
Regarding `Cc1nc(C)c(C(=O)NC2CCCC2c2ccccc2C(F)(F)F)s1` (stereo not shown) [Example 308], the logP (method [b] (pH 2.7)) is 2.97^[b].
As for `O=C(NC1CCCC1c1ccccc1C(F)(F)F)c1cccnc1C(F)(F)F` (stereo not shown) [Example 309], under “method [b] (pH 2.7)”, the logP is 3.22^[b].
Regarding `Cc1nn(C)cc1C(=O)NC1CCCC1c1ccccc1C(F)(F)F` (stereo not shown) [Example 310], the logP (method [b] (pH 2.7)) was 2.47^[b].
As for `Cc1nc(C)c(C(=O)NC2CCCC2c2c(F)cccc2F)s1` (stereo not shown) [Example 312], the logP (method [b] (pH 2.7)) was 2.65^[b].
For `O=C(NC1CCCC1c1c(F)cccc1F)c1c(F)cccc1F` (stereo not shown) [Example 314], the logP (method [b] (pH 2.7)) is 3.05^[b].
Still for that read-out and setting: the same measure for `O=C(NC1CCCC1c1ccccc1C(F)(F)F)c1c(F)cccc1F` (stereo not shown) [Example 320]: 3.38^[b].
Regarding `O=C(NC1CCCC1c1c(F)cccc1F)c1cccnc1Cl` (stereo not shown) [Example 321], the logP (method [b] (pH 2.7)) is 2.51^[b].
With `Cc1nn(C)cc1C(=O)NC1CCCC1c1c(F)cccc1F` (stereo not shown) [Example 324], the logP (method [b] (pH 2.7)) was 2.13^[b].
With `Cc1nc(C)c(C(=O)NC2CCCC2c2ccccc2Br)s1` (stereo not shown) [Example 344], the logP (method [b] (pH 2.7)) is 2.86^[b].
The same measure, in the same setting: the same measure for `Cc1nn(C)cc1C(=O)NC1CCCC1c1ccccc1Br` (stereo not shown) [Example 345]: 3.69^[b]; for `O=C(NC1CCCC1c1ccccc1Br)c1c(F)cccc1F` (stereo not shown) [Example 347]: 3.35^[b]; for `O=C(NC1CCCC1c1ccc(Cl)cc1Cl)c1c(F)cccc1F` (stereo not shown) [Example 350]: 3.73^[b].

The values are drawn from US20160075653A1, “NEMATICIDAL N-(PHENYLCYCLOALKYL)CARBOXAMIDES AND N-(PHENYLCYCLOALKYL)THIOCARBOXAMIDES” (BAYER CROPSCIENCE AKTIENGESELLSCHAFT, priority 2013, published 2016).
